Measurements as given in US20170348258A1, “3-Amino Benzamide Derivative Serving As B-Lactam Auxiliary Antibiotic, Preparation Method and Use Thereof” (THE HONG KONG POLYTECHNIC UNIVERSITY, priority 2014, published 2017).

Columns and labels:
[1] = tested on: MRSA strain USA300#757; test: Fractional Inhibitory Concentration Index (FICI) determination; assay type: cell-based, S. aureus
Description: The bacterial strains used in this study were clinically isolated MRSA strains USA300#757 and #2960 which were obtained from our laboratory. Determination of the Fractional Inhibitory Concentration Index (FICI) was adopted by the Müller-Hinton broth (MHB) dilution method as previously described. Twelve serial two-fold dilutions of PC190723, F332 and F361 were prepared in the 96-well microplate with concentration ranging from 512 to 0.25 μg/mL. […] Lastly, the compounds and the β-lactams were mixed at a 1:1 ratio and subjected to two-fold dilution as described previously. Each microplate well contained 100 μL of MHB supplemented with compounds alone, β-lactams alone or the mixture of compounds and β-lactams. Overnight cultures of S. aureus in the Müller-Hinton broth was diluted to OD595 of 0.08-0.1 in saline and added in each of the microplate well. The plates were incubated at 37° C. for 20 h. All tests were performed in duplicate and the inhibition of bacterial growth was determined by visualization. The FICI of compounds and β-lactams were calculated as followed: FICI=(MIC of combination of compound and β-lactam/MIC of compound alone)+(MIC of combination of compound and β-lactam/MIC of β-lactam alone).

[2] = molecular target: T1, S. aureus FtsZ (Staphylococcus aureus, UniProt P0A031); test: Transmission electron microscopy of FtsZ polymer morphology; assay type: biochemical; conditions: 100 μM compound, GTP 1 mM, 37° C. 15 minutes
T1 construct: inferred from capture on a nickel chelating column and imidazole elution; made in house; host or cells: E. coli BL21
T1 sequence (P0A031 1-390): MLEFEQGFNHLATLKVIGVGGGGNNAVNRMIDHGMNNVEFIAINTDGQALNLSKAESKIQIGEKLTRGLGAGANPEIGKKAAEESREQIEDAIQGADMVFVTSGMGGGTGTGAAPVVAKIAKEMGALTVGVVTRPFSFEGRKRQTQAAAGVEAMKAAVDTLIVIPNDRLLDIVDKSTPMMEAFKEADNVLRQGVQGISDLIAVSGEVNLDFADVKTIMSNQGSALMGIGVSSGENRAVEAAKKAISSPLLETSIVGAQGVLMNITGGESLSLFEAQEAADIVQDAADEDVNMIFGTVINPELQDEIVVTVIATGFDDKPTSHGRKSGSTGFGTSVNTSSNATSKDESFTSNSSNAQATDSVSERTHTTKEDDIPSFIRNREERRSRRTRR
Description: TEM provides a direct observation of FtsZ polymer morphology. Two promising compounds F332 and F361 were chosen for testing. S. aureus FtsZ ([…]) was incubated with the compounds at different concentrations in 50 mM MOPS buffer (pH 6.5) at 25° C. for 10 minutes. The control contained 1% DMSO only. KCl (final concentration: 50 mM) and MgCl2 (final concentration: 5 mM) were then added to the mixture. The mixture was incubated with GTP (final concentration: 1 mM) at 37° C. for 15 minutes. 10 μL reaction mixtures were applied on a glow-discharged Formvar carbon-coated copper grid (400 meshes) at 25° C. for 10 minutes. 10 μL of 0.5% phosphotungistic acid (PTA) was applied on the copper grid in order to negatively stain the proteins. The copper grid was allowed to air dry overnight.

[3] = molecular target: T1, S. aureus FtsZ; test: Light scattering assay (FtsZ polymerization); assay type: biochemical; conditions: S. aureus FtsZ 12 μM, 1 mM GTP, serial dilutions of compound
Description: Light scattering assay was used to determine the degree of FtsZ polymerization by measuring the 90° light scattering signal using a fluorescence spectrometer (Perkin-Elmer, USA). The excitation and emission wavelengths were set to 600 nm with a slit width of 5 nm. S. aureus FtsZ (12 μM) was incubated with serial dilutions of the compounds in 50 mM MOPS buffer (pH 6.8) at 25° C. for 10 minutes. The control contained 1% DMSO only. KCl (final concentration: 50 mM) and MgCl2 (final concentration: 10 mM) were then added to the mixture. The mixture was incubated at 37° C. for 8 minutes in order to establish a baseline. A final concentration of 1 mM GTP was added and the light scattering signal was measured for 1,500 seconds. The relative light scattering signals in experimental set-up were calculated with reference to the light scattering signal in control experiment. Three independent experiments were carried out for each compound concentration.

[4] = tested on: B. subtilis 168 cells; test: Effects on the morphology of B. subtilis cells; assay type: cell-based; conditions: for average cell length of B. subtilis: compound at half of MIC (1.56 μM F332, 0.78 μM F361), untreated 3.5±0.7 μm; for average cell length of B. subtilis / lengthening of cell length of B. subtilis versus untreated: 4 hours; for lengthening of cell length of B. subtilis versus untreated: compound at half of MIC; for filamentation of B. subtilis 168 cells: sub-lethal concentrations
Description: The log-phase culture of B. subtilis was tested with the two compounds with a final concentration of half of MIC value. A 1% DMSO solution was used as the control.

[5] = molecular target: T1, S. aureus FtsZ; test: GTPase activity assay; assay type: biochemical; conditions: FtsZ 7.5 μM, GTP 500 μM, 37° C. 30 minutes
Description: The GTPase activity of S. aureus FtsZ was determined in a 96-well microplate using a CytoPhos™ phosphate assay Biochem Kit™ (Cytoskeleton, USA) which measured the concentration of inorganic phosphate released during the hydrolysis of GTP. Recombinant S. aureus FtsZ (7.5 μM) was incubated with serial dilutions of the compounds in 50 mM MOPS buffer (pH 6.5) at 25° C. for 10 minutes. The control contained 1% DMSO only. KCl (final concentration: 200 mM) and MgCl2 (final concentration: 5 mM) were then added to the mixture. The mixture was incubated with GTP (final concentration: 500 μM) at 37° C. for 30 minutes. The insoluble polymer was removed by centrifugation at 13,500 rpm at room temperature for 1 minute. 80 μL supernatant was transferred to a well of a 96-well microplate and incubated with 120 μL of Cytophos reagent at room temperature for 10 minutes. The inorganic phosphate in the mixture was determined by measuring the absorbance at 650 nm in a 96-well microplate reader (BioRad 680). The results from the samples were reported with reference to the control. Three independent experiments were carried out for each compound concentration.

Compound	FICI with Cefotaxime [1]	FICI with Meropenem [1]	FtsZ polymer morphology (TEM) [2]	effect on light scattering signal of FtsZ assembly (polymerization) [3]	average cell length of B. subtilis [4] [μm]	lengthening of cell length of B. subtilis versus untreated [4]	filamentation of B. subtilis 168 cells [4]	effect on GTPase activity of S. aureus FtsZ [5]	FICI with Ampicillin [1]	FICI with Cefuroxime [1]	FICI with Cloxacillin [1]
CCCCCCCCCN(C)c1ccc(F)c(C(N)=O)c1F [Compound F361, 2,6-difluoro-3-(methyl(nonyl)amino)benzamide]	0.38	1.13	relatively short and straight single strand FtsZ protofilaments	inhibit the light scattering of FtsZ assembly	21.1±1.8	six-fold lengthening	cause filamentation	no significant change of the GTPase activity			
CCCCCCCCCNc1ccc(F)c(C(N)=O)c1F [Compound F332, 2,6-difluoro-3-(nonylamino)benzamide]	0.13	1.06	relatively short and straight single strand FtsZ protofilaments	inhibit the light scattering of FtsZ assembly	11.7±4.5	three-fold lengthening	cause filamentation	no significant change of the GTPase activity	0.52	0.09	1.02
